Reference: patent US7084166B2, “Bis-heterocyclic compounds with antitumour and chemosensitising activity” (Sigma-Tau Industrie Farmaceutichee Riunite S.p.A., priority 2000, dated 2006)
Read-outs that look alike come from different tables or passages of the source. Blank lines part the entries; values can stand above or below the compound they belong to.

How the values were obtained:
Type in all cases: cell-based
[1] = system: NB4 cells (acute promyelocytic leukaemia); assay: Cell differentiation by reduction of nitroblue tetrazolium (NBT), with suboptimal ATRA; conditions: for AC50 / fold induction (differentiation, compound + ATRA vs ATRA alone): combined with suboptimal doses of ATRA, NBT; for AC50: 3 days, read-out: AC50 (concentration at which the tested compound induces 50% of cell differentiation)
Description: The first line used was the NB4 cell line, bearing the t(15;17) chromosomal translocation which generates the fusion protein PML/RARα. This line is very sensitive to the differentiative action of pharmacological doses of ATRA (10^−7–10^−6 M).
(§1) The HL60 and NB4 cells were seeded at a density of 150,000 cells/ml in RPMI 1640 medium containing 10% foetal calf serum, and were treated with the tested compounds in the presence and absence of suboptimal doses of ATRA (5–10 nM for NB4 and 0.5 μM for HL60, respectively) in the dark, and returned to the incubator for 3 days without ever replacing the culture medium.
(§2) To analyse the differentiative effect of the tested compounds vs ATRA, on the third day of treatment 500,000 viable cells were harvested from each sample, centrifuged for 10 minutes at 1.000 rpm and resuspended in 1 ml of RPMI 1640 medium containing 10% foetal calf serum, 1 mg/ml of nitroblue tetrazolium (NBT) and 100 ng of PMA (phorbol 12-myristate 13-acetate).
(§3) The cells thus resuspended were incubated in the dark at 37° C. for 60 minutes.
(§4) At the end of the incubation, the cell suspension was centrifuged for 10 minutes at 10,000 rpm; the pellet obtained was then resuspended in 1 ml of PBS containing 10% Triton X-100 and sonicated to lysis.
(§5) Spectrophotometric readings of the samples were then taken at a wavelength of 540 nm: samples containing differentiated cells shifted towards a violet colour, whereas control samples and/or samples with non-differentiated cells were colourless or, at any rate, much less intensely coloured.
(§6) The AC50 (Activating Concentration) is the concentration at which the tested compound induces 50% of cell differentiation.
(§7) Fold Induction is the increase in the differentiation value of the cell sample treated with the tested compound +ATRA vs the value of the cell sample treated with ATRA alone. This value provides an indication of the ability (potency) of the tested compound to enhance ATRA induced cell differentiation.

[2] = system: NB4 cells (acute promyelocytic leukaemia); assay: Flow cytofluorimetric analysis of cell cycle; design: APOPTOSIS: unit not given here; conditions: for effect of the compound alone on cell cycle and apoptosis (in words): compound alone (ST 1346: high doses)
Description: The first line used was the NB4 cell line, bearing the t(15;17) chromosomal translocation which generates the fusion protein PML/RARα.
(§8) To assess the effect of the tested compounds on the various phases of the cell cycle, on the third day of treatment 500,000 cells were harvested, centrifuged at 1,000 rpm for 10 minutes, washed twice in PBS w/o (PBS without calcium and magnesium) and fixed in a solution of 50% PBS w/o+50% methanol/acetone (1:4 v/v) for at least 1 hour; the cells were then centrifuged as described, washed in PBS w/o and centrifuged again.
(§9) 200 μl of propidium iodide 100 μg/ml and 200 μl of RNase 150 kU/mg were then added to the cell pellet.
(§10) After a 30-min incubation in the dark at room temperature, the samples were analysed by flow cytofluirometry.

[3] = system: HL60 cells (acute promyelocytic leukaemia); assay: Cell differentiation by reduction of nitroblue tetrazolium (NBT), with suboptimal ATRA; conditions: combined with suboptimal doses of ATRA; for AC50: Homo sapiens, HL-60, 72 h, 3 days, read-out: AC50 (concentration at which the tested compound induces 50% of cell differentiation)
Description: (§11) The second line used was the HL60 cell line which responds to ATRA (but is less sensitive than the NB4 cell line).
as §1, §2, §3, §4, §5, §6, §7

[4] = system: HL60 cells (acute promyelocytic leukaemia); assay: Flow cytofluorimetric analysis of cell cycle; conditions: day 3
Description: as §11, §1, §8, §9, §10

[5] = compound 1 μM + ATRA 0.01 μM, day 3
[6] = compound 1 μM + ATRA 0.01 μM, day 3, listed as ST1346
[7] = compound 5 μM + ATRA 0.01 μM, day 3
[8] = compound 5 μM + ATRA 0.01 μM, day 3, listed as ST1346
[9] = compound 10 μM + ATRA 0.01 μM, day 3
[10] = compound 10 μM + ATRA 0.01 μM, day 3, listed as ST1346
[11] = compound 50 μM + ATRA 0.01 μM, day 3
[12] = compound 50 μM + ATRA 0.01 μM, day 3, listed as ST1346

fold induction (differentiation, compound + ATRA vs ATRA alone) [1]: 3.0
fold induction (differentiation, compound + ATRA vs ATRA alone) [3]: 2.7
Structure (SMILES): OCCCCC(c1c[nH]c2ccccc12)c1c[nH]c2ccccc12 [ST 1346, 5-hydroxy-1,1-di-(indol-3-yl)-pentane]
AC50 ([1]; Homo sapiens, NB-4, 72 h): 1.5 ± 0.5 µM
dose reaching maximal effect in sensitising ATRA-induced terminal differentiation ([1]; doses 1, 5, 10, 50 μM with suboptimal ATRA): 10 µM
APOPTOSIS [2, 5]: 17.5
G0/G1 [2, 5]: 57.1
G2/M [2, 5]: 13.9
S [2, 5]: 29.0
APOPTOSIS [2, 6]: 14
G0/G1 [2, 6]: 61.5
G2/M [2, 6]: 12.9
S [2, 6]: 25.6
APOPTOSIS [2, 7]: 17.0
G0/G1 [2, 7]: 58.4
G2/M [2, 7]: 13.9
S [2, 7]: 27.7
APOPTOSIS [2, 8]: 13.5
G0/G1 [2, 8]: 58.0
G2/M [2, 8]: 13.5
S [2, 8]: 28.5
APOPTOSIS [2, 9]: 15.0
G0/G1 [2, 9]: 58.4
G2/M [2, 9]: 13.0
S [2, 9]: 28.6
APOPTOSIS [2, 10]: 13
G0/G1 [2, 10]: 60.0
G2/M [2, 10]: 12.6
S [2, 10]: 27.4
APOPTOSIS [2, 11]: 10.0
G0/G1 [2, 11]: 82.2
G2/M [2, 11]: 8.0
S [2, 11]: 9.8
APOPTOSIS [2, 12]: 17
G0/G1 [2, 12]: 84.2
G2/M [2, 12]: 6.3
S [2, 12]: 9.5
APOPTOSIS ([2]; compound alone 1 μM, day 3): 23
G0/G1 ([2]; compound alone 1 μM, day 3): 46.9
G2/M ([2]; compound alone 1 μM, day 3): 15.7
S ([2]; compound alone 1 μM, day 3): 37.4
APOPTOSIS ([2]; compound alone 5 μM, day 3): 24
G0/G1 ([2]; compound alone 5 μM, day 3): 47.4
G2/M ([2]; compound alone 5 μM, day 3): 13.8
S ([2]; compound alone 5 μM, day 3): 38.8
APOPTOSIS ([2]; compound alone 10 μM, day 3): 23
G0/G1 ([2]; compound alone 10 μM, day 3): 50.0
G2/M ([2]; compound alone 10 μM, day 3): 14.7
S ([2]; compound alone 10 μM, day 3): 35.3
APOPTOSIS ([2]; compound alone 50 μM, day 3): 46
G0/G1 ([2]; compound alone 50 μM, day 3): 59.4
G2/M ([2]; compound alone 50 μM, day 3): 7.3
S ([2]; compound alone 50 μM, day 3): 33.3
effect of the compound alone on cell cycle and apoptosis (in words) [2]: induce growth arrest (in the G0/G1 phase of the cell cycle) and apoptosis
AC50 [3]: 14.8 ± 1.6 µM

fold induction (differentiation, compound + ATRA vs ATRA alone) [1]: 2.5
Structure (SMILES): OCCCC(c1c[nH]c2ccccc12)c1c[nH]c2ccccc12 [ST 1707, 1,1-di(indol-3-yl)-4-hydroxy-butane]
AC50 ([1]; Homo sapiens, NB-4, 72 h): 8.3 ± 0.05 µM
APOPTOSIS [2, 5]: 17.0
G0/G1 [2, 5]: 65.4
G2/M [2, 5]: 11.8
S [2, 5]: 22.8
APOPTOSIS [2, 7]: 14.0
G0/G1 [2, 7]: 69.8
G2/M [2, 7]: 11.3
S [2, 7]: 18.9
APOPTOSIS [2, 9]: 13.0
G0/G1 [2, 9]: 70.4
G2/M [2, 9]: 11.5
S [2, 9]: 18.1
APOPTOSIS [2, 11]: 11.5
G0/G1 [2, 11]: 80.6
G2/M [2, 11]: 9.0
S [2, 11]: 10.4
APOPTOSIS ([2]; compound alone 1 μM, day 3): 17.0
G0/G1 ([2]; compound alone 1 μM, day 3): 51.7
G2/M ([2]; compound alone 1 μM, day 3): 10.1
S ([2]; compound alone 1 μM, day 3): 38.2
APOPTOSIS ([2]; compound alone 5 μM, day 3): 19.5
G0/G1 ([2]; compound alone 5 μM, day 3): 52.5
G2/M ([2]; compound alone 5 μM, day 3): 11.1
S ([2]; compound alone 5 μM, day 3): 36.4
APOPTOSIS ([2]; compound alone 10 μM, day 3): 17.5
G0/G1 ([2]; compound alone 10 μM, day 3): 52.2
G2/M ([2]; compound alone 10 μM, day 3): 10.8
S ([2]; compound alone 10 μM, day 3): 37.0
APOPTOSIS ([2]; compound alone 50 μM, day 3): 17.0
G0/G1 ([2]; compound alone 50 μM, day 3): 52.0
G2/M ([2]; compound alone 50 μM, day 3): 12.0
S ([2]; compound alone 50 μM, day 3): 36.0
effect of the compound alone on cell cycle and apoptosis (in words) [2]: does not induce apoptosis

Structure (SMILES): O=C(O)CCC(c1c[nH]c2ccccc12)c1c[nH]c2ccccc12 [ST 1961, 4,4-di-(1H-indolyl-)butanoic acid]
AC50 [1]: 6.6 ± 2 µM
fold induction (differentiation, compound + ATRA vs ATRA alone) [1]: 1.4
APOPTOSIS ([2]; compound alone 1 μM, day 3): 18.5
G0/G1 ([2]; compound alone 1 μM, day 3): 47.5
G2/M ([2]; compound alone 1 μM, day 3): 15.6
S ([2]; compound alone 1 μM, day 3): 36.9
APOPTOSIS ([2]; compound alone 5 μM, day 3): 24.0
G0/G1 ([2]; compound alone 5 μM, day 3): 49.7
G2/M ([2]; compound alone 5 μM, day 3): 13.0
S ([2]; compound alone 5 μM, day 3): 37.3
APOPTOSIS ([2]; compound alone 10 μM, day 3): 24.0
G0/G1 ([2]; compound alone 10 μM, day 3): 48.4
G2/M ([2]; compound alone 10 μM, day 3): 14.1
S ([2]; compound alone 10 μM, day 3): 37.5
APOPTOSIS ([2]; compound alone 50 μM, day 3): 24.0
G0/G1 ([2]; compound alone 50 μM, day 3): 56.3
G2/M ([2]; compound alone 50 μM, day 3): 14.0
S ([2]; compound alone 50 μM, day 3): 29.7

fold induction (differentiation, compound + ATRA vs ATRA alone) [1]: 1.8
fold induction (differentiation, compound + ATRA vs ATRA alone) [3]: 1.6
Structure (SMILES): Cn1cc(C(CCCCO)c2cn(C)c3ccccc23)c2ccccc21 [ST 1974, 5,5-bis-(1-methyl-1H-indol-3-yl)-1 Pentanol]
AC50 ([1]; Homo sapiens, NB-4, 72 h): 7.8 ± 2.6 µM
G0/G1 ([4]; compound 1 μM + ATRA 0.5 μM): 62.0
G2/M ([4]; compound 1 μM + ATRA 0.5 μM): 11.7
S ([4]; compound 1 μM + ATRA 0.5 μM): 26.3
G0/G1 ([4]; compound 5 μM + ATRA 0.5 μM): 63.8
G2/M ([4]; compound 5 μM + ATRA 0.5 μM): 10.5
S ([4]; compound 5 μM + ATRA 0.5 μM): 25.7
G0/G1 ([4]; compound 10 μM + ATRA 0.5 μM): 65.4
G2/M ([4]; compound 10 μM + ATRA 0.5 μM): 10.5
S ([4]; compound 10 μM + ATRA 0.5 μM): 24.1
G0/G1 ([4]; compound 50 μM + ATRA 0.5 μM): 81.8
G2/M ([4]; compound 50 μM + ATRA 0.5 μM): 10.6
S ([4]; compound 50 μM + ATRA 0.5 μM): 7.6
G0/G1 ([4]; compound alone 1 μM): 58.9
G2/M ([4]; compound alone 1 μM): 11.1
S ([4]; compound alone 1 μM): 30
G0/G1 ([4]; compound alone 5 μM): 59.3
G2/M ([4]; compound alone 5 μM): 11.4
S ([4]; compound alone 5 μM): 29.3
G0/G1 ([4]; compound alone 10 μM): 57.8
G2/M ([4]; compound alone 10 μM): 12.2
S ([4]; compound alone 10 μM): 30
G0/G1 ([4]; compound alone 50 μM): 67.7
G2/M ([4]; compound alone 50 μM): 12.3
S ([4]; compound alone 50 μM): 20
AC50 [3]: 9.5 ± 2.6 µM
